Source: ChEMBL document CHEMBL4689842, “EUbOPEN Chemogenomics Library wave 1” (2021)

How the values were obtained:
Type in all cases: toxicity, cell-based
Fibroblast = experiment: Incucyte cell viability with human fibroblast; settings: 10 µM, compound concentration 10 uM
HEK-293T = experiment: Incucyte cell viability with HEK293T; settings: human, 10 µM, compound concentration 10 uM
U2OS = experiment: Incucyte cell viability with U2OS; settings: human, 10 µM, compound concentration 10 uM
[1] = 0 h, replicate number 1, timepoint 0 hours
[2] = 6 h, replicate number 2, timepoint 6 hours
[3] = 18 h, replicate number 2, timepoint 18 hours
[4] = 24 h, replicate number 1, timepoint 24 hours
[5] = 12 h, replicate number 1, timepoint 12 hours
[6] = 18 h, replicate number 1, timepoint 18 hours
Note: filed as whole numbers so only -1 and 0 and 1 occur.

Compound: C=C1/C(=C\C=C2/CCC[C@]3(C)[C@@H]([C@H](C)/C=C/C=C/C(O)(CC)CC)CC[C@@H]23)C[C@@H](O)C[C@@H]1O [SEOCALCITOL]
- Growth Rate (Fibroblast; [1]): 0
- Growth Rate (Fibroblast; [2]): 0
- Growth Rate (Fibroblast; 12 h, replicate number 2, timepoint 12 hours): 0
- Growth Rate (Fibroblast; [3]): 1
- Growth Rate (Fibroblast; [4]): 1
- Growth Rate (HEK-293T; [1]): 0
- Growth Rate (HEK-293T; 6 h, replicate number 1, timepoint 6 hours): 1
- Growth Rate (HEK-293T; [2]): 0
- Growth Rate (HEK-293T; [5]): 0
- Growth Rate (HEK-293T; [6]): 0
- Growth Rate (HEK-293T; [4]): 0
- Growth Rate (U2OS; 0 h, replicate number 2, timepoint 0 hours): 1
- Growth Rate (U2OS; [2]): 0
- Growth Rate (U2OS; [5]): 1
- Growth Rate (U2OS; [6]): 1
- Growth Rate (U2OS; [3]): 0
- Growth Rate (U2OS; [4]): 1
- Growth Rate (U2OS; 24 h, replicate number 2, timepoint 24 hours): 0
